Data on 4 compounds can be found in US10220028B2, “Thio compounds” (The United States of America, as represented by the …, priority 2011, dated 2019).

One data set concerns IL-2. Nature of the data set: Generation of IL-2 by TCR-stimulated T cells (cytokine ELISA). It is filed as cell-based, human. Particulars: FIG. 5B; for concentration at which significant inhibition of IL-2 generation begins: stimulated T cells. As to the method:
(§1) FIGS. 5A-5C. Concentration-dependence of effects of certain compounds on human T cell generation of cytokines. Each column and bar depicts the mean±S.D. of the results of cytokine ELISAs of supernates from T cells of a total of four healthy subjects, of whom two were young and two were old, after three days of incubation with anti-CD3+ anti-CD28 antibodies without (control=100%) and with a drug. The mean±S.D. of control (100%) values for IFN-γ, IL-2 and IL-17, respectively, where 30,915±11,206, 5.8±3.4 and 1149±372 pg/ml. A=IFN-γ, B=IL-2 and C=IL-17. Statistical significance of differences from the controls without an IMD was calculated by a two-sample t test and indicated by + for p<0.05,*for p<0.01 and**for p<0.001.
(§2) The capacity of several different compounds to alter the generation of three distinct immune cytokines by TCR-stimulated T cells of young and old subjects was investigated.

A further data set concerns IL-17. Nature of the data set: Generation of IL-17 by TCR-stimulated T cells (cytokine ELISA). It is filed as cell-based, human. Particulars: FIG. 5C. As to the method: as §1
No compound was capable of enhancing TCR-stimulated T cell generation of IL-17. However, there was significant inhibition of generation of IL-17 by dithiolenalidomide at 0.1 μM and higher, lenalidomide at 0.3 μM and higher, dithiothalidomide at 3 μM and higher, and thalidomide only at 100 μM (FIG. 5C). None of the thalidomide-type drugs altered cytokine generation alone in the absence of TCR-directed stimulation (data not shown).

For a further data set, the system named is IFN-γ. Nature of the data set: Generation of IFN-γ by TCR-stimulated T cells (cytokine ELISA). It is filed as cell-based, human. As to conditions: FIG. 5A; for concentration at which significant inhibition of IFN-γ generation begins: TCR-stimulated T cells. The protocol: as §1, §2
Another data set concerns TNF-α protein. Nature of the data set: TNF-α protein assay (ELISA) in LPS stimulated RAW 264.7 culture media. It is filed as cell-based, mouse. As to conditions: LPS stimulated RAW 264.7 cells; vs DMSO control. The protocol:
TNF-α protein levels were measured by use of an ELISA specific for mouse TNF-α protein (BioLegend, San Diego, Calif.), O.D.s measured at 450 nm λ, obtained from the unknown samples were compared to a TNF-α protein standard curve (7.8 to 500 pg/ml) and the calculated TNF-α levels are expressed as a % change from their appropriate control or as pg/ml.

The subject of a further data set is RAW 264.7 cells. Briefly: Cellular toxicity, lactate dehydrogenase (LDH) assay. It is filed as cell-based. As to conditions: from 60 min after addition of LPS, vs DMSO control, FIG. 1.
Data set [1] deals with LPS stimulated RAW 264.7 cells. Briefly: Cellular proliferation/health, MTS assay. It is filed as cell-based. Particulars: for cell stress (changes in O.D. values of the MTS assay): FIG. 4. The protocol:
The CellTiter 96 AQueous One Solution Cell Proliferation Assay (Promega, Madison, Wis.) is routinely used as an assay of cell proliferation, and was used herein, according to the manufacturer's recommendations. […] Optical densities were measured after 1 to 2 hours incubation and were expressed as a % change from their appropriate control.

A further data set deals with nitrite. Briefly: Nitrite levels, Griess Reagent System assay. As to conditions: LPS stimulated RAW 264.7 media; FIG. 3. It is filed as cell-based. As to the method:
Nitrite levels in the culture media were measured by use of the Griess Reagent System (Promega, Madison, Wis.), following the manufacturer's protocol. The O.D. of unknown samples was read at 520 nm A, compared to a sodium nitrite standard curve (1.5 μM to 100 μM) and nitrite measured media concentrations expressed as a % change from their appropriate control.

Structures are written as SMILES. “Also recorded” adds a separate entry of the source.

Consider `Nc1cccc2c1CN(C1CCC(=S)NC1=O)C2=S` (stereo not drawn) [dithiolenalidomide, 1,6′-Dithiolenalidomide], for which the “concentration at which significant inhibition of IL-2 generation begins” value with IL-2 was ≥ 3 µM. In the data set with IL-17, the “concentration at and above which IL-17 generation is significantly inhibited” value is ≥ 0.1 µM. Moreover, in the data set on IFN-γ, the “concentration at which significant inhibition of IFN-γ generation begins” value was ≥ 1 µM. Also, the “levels of TNF-α protein in cell culture media” value in the data set on TNF-α protein is given as “retained TNF-α inhibitory effect; also recorded: reduced the levels of TNF-α protein”. Besides, the “cellular stress (O.D. values, LDH assay)” value with RAW 264.7 cells is listed as “no evidence of cellular stress”. Further, the “cellular stress (MTS assay)” value in data set [1] (concentrations that far exceed 20 μM, LPS stimulated RAW 264.7 cells, FIG. 3) is on record as “failed to induce any cellular stress”. The “toxicity compared to dithiothalidomide” value in data set [1] (particularly at drug concentrations or 10 μm or greater) is on record as “less toxic compared to dithiothalidomide”. The “levels of nitrite in cell culture media” value with nitrite is on record as “reduced the levels of nitrite”.
With `O=C1CCC(N2C(=O)c3ccccc3C2=O)C(=O)N1` (stereo not drawn) [thalidomide, N-α-phthalimidoglutarimide], the “effect on IL-2 generation” value in the data set with IL-2 (at up to 100 μM) is on record as “no detectable effect”. Besides, the “concentration at and above which IL-17 generation is significantly inhibited” value in the data set on IL-17 amounted to 100 µM. For the same compound, the “inhibition of IFN-γ generation” value in the data set with IFN-γ (at 100 μM) is on record as “only modest inhibition”. Further, in data set [1], the “cell stress (changes in O.D. values of the MTS assay)” value is “Neither thalidomide and lenalidomide treatment induced any cell stress”.
Turning to `O=C1NC(=S)CCC1N1C(=O)c2ccccc2C1=S` (stereo not drawn) [dithiothalidomide, 3,6′-Dithiothalidomide], the “concentration at which significant inhibition of IL-2 generation begins” value with IL-2 was ≥ 30 µM. In addition, in the data set with IL-17, the “concentration at and above which IL-17 generation is significantly inhibited” value was ≥ 3 µM. Besides, in the data set with IFN-γ, the “concentration at which significant inhibition of IFN-γ generation begins” value was ≥ 3 µM. Further, the “levels of TNF-α protein in cell culture media” value with TNF-α protein is recorded as “reduced the levels of TNF-α protein”. For the same compound, the “cellular stress (O.D. values, LDH assay)” value in the data set with RAW 264.7 cells is given as “evidence of cellular stress”. Further, the “cellular health (MTS assay), relative to 100% control” value in data set [1] (20 μM, LPS stimulated RAW 264.7 cells, FIG. 3) is “reduction from the 100% control values”. The “cellular stress (MTS assay)” value in data set [1] (20 μM, LPS stimulated RAW 264.7 cells, vs DMSO control, FIG. 3) is on record as “evidence of cellular stress”. The “levels of nitrite in cell culture media” value in the data set with nitrite is given as “reduced the levels of nitrite”.
`Nc1cccc2c1CN(C1CCC(=O)NC1=O)C2=O` (stereo not drawn) [lenalidomide]: in the data set on IL-2 (at 1 μM, mixed group of young and old subjects), the “mean maximal enhancement of IL-2 generation” value is 9.5 fold. Moreover, the “concentration at and above which IL-17 generation is significantly inhibited” value in the data set with IL-17 was ≥ 0.3 µM. In the data set with IFN-γ (at 3 μM), the “peak enhancement of IFN-γ generation” value is reported as “nearly three-fold”. For the same compound, the “cell stress (changes in O.D. values of the MTS assay)” value in data set [1] is “Neither thalidomide and lenalidomide treatment induced any cell stress”.
